ChEMBL document CHEMBL3244037, “6-Aryl-4H-s-triazolo[4,3-a][1,4]benzodiazepines. Influence of 1-substitution on pharmacological activity” (J Med Chem, 1979)

Key:
Mus musculus [1] = test: Anticonvulsant activity in ip dosed albino CF1 mouse assessed as protection against pentylenetetrazole-induced clonic convulsions; format: functional
Mus musculus [2] = test: Hypothermic activity in ip dosed albino CF1 mouse assessed as effect on body temperature measured after 45 mins; format: functional; conditions: 0.75 h
Mus musculus [3] = test: Inhibition of apomorphine-induced cage climbing in ip dosed albino CF1 mouse compound administered prior to challenge measured for 5 mins after 5 mins of challenge; format: functional
Mus musculus [4] = test: Anticonvulsant activity in ip dosed albino CF1 mouse assessed as inhibition of bicucullin-induced tonic extensor convulsions; format: functional
Mus musculus [5] = test: […] activity in ip dosed albino CF1 mouse assessed as potentiation of gamma-butyrolactone-induced sleep; format: functional
Mus musculus [6] = test: Reduction of hypoxic stress in ip dosed albino CF1 mouse assessed as prolongation of hypoxic survival time; format: functional
Mus musculus [7] = test: Inhibition of amphetamine aggregation toxicity in ip dosed albino CF1 mouse compound administered 1 hr prior to challenge measured after 2 hrs; format: functional
Mus musculus [8] = test: Potentiation of yohimbine toxicity in ip dosed aggregated albino CF1 mouse; format: organism-based
Mus musculus [9] = test: Inhibition of oxotremorine-induced hypothermia in ip dosed albino CF1 mouse; format: functional
Mus musculus [10] = test: Potentiation of apomorphine-induced gnawing in ip dosed albino CF1 mouse; format: organism-based

SMILES | ED50 (Mus musculus [1]) | ED50 (Mus musculus [2]) | ED50 (Mus musculus [3]) | ED50 (Mus musculus [4]) | ED50 (Mus musculus [5]) | ED50 (Mus musculus [6]) | ED50 (Mus musculus [7]) | ED50 (Mus musculus [8]) | ED50 (Mus musculus [9]) | ED50 (Mus musculus [10])
CN1CCN(c2nnc3n2-c2ccc(Cl)cc2C(c2ccccc2)=NC3)CC1 | 1.6 mg/kg | > 50 mg/kg | > 50 mg/kg | 10.5 mg/kg | 0.7 mg/kg | > 50 mg/kg | > 50 mg/kg | > 50 mg/kg | 7.4 mg/kg | 17.7 mg/kg
CCN1CCN(c2nnc3n2-c2ccc(Cl)cc2C(c2ccccc2)=NC3)CC1 | 0.9 mg/kg | 42 mg/kg | > 50 mg/kg | 1.9 mg/kg | 0.6 mg/kg | 25 mg/kg | > 50 mg/kg | > 50 mg/kg | 0.2 mg/kg | 29.7 mg/kg
OCCN1CCN(c2nnc3n2-c2ccccc2C(c2ccccc2Cl)=NC3)CC1 | 3 mg/kg | 2 mg/kg | > 50 mg/kg | 6 mg/kg | 3 mg/kg | 0.9 mg/kg | > 50 mg/kg | 30 mg/kg | 40 mg/kg | > 50 mg/kg
CCN1CCN(c2nnc3n2-c2ccccc2C(c2ccccc2Cl)=NC3)CC1 | 2 mg/kg | 2 mg/kg | > 50 mg/kg | 7 mg/kg | > 50 mg/kg | 4 mg/kg | > 50 mg/kg | 30 mg/kg | 40 mg/kg | > 50 mg/kg
CN1CCN(c2nnc3n2-c2ccc(Cl)cc2C(c2ccccc2Cl)=NC3)CC1 | 0.03 mg/kg | 3.1 mg/kg | > 50 mg/kg | 0.06 mg/kg | 0.035 mg/kg | 0.011 mg/kg | > 50 mg/kg | 35.4 mg/kg | 4.4 mg/kg | > 50 mg/kg
Clc1ccccc1C1=NCc2nnc(N3CCOCC3)n2-c2ccccc21 | 1.6 mg/kg | > 50 mg/kg | > 50 mg/kg | 10.5 mg/kg | 0.8 mg/kg | 0.015 mg/kg | > 50 mg/kg | > 50 mg/kg | > 50 mg/kg | > 50 mg/kg
Clc1ccc2c(c1)C(c1ccccc1Cl)=NCc1nnc(N3CCOCC3)n1-2 | 0.06 mg/kg | 6 mg/kg | > 50 mg/kg | 0.05 mg/kg | 0.04 mg/kg | 0.06 mg/kg | > 50 mg/kg | > 50 mg/kg | > 50 mg/kg | > 50 mg/kg
CN(C)CCOc1nnc2n1-c1ccc(Cl)cc1C(c1ccccc1)=NC2 | 2.2 mg/kg | > 50 mg/kg | > 50 mg/kg | 1.1 mg/kg | 0.2 mg/kg | 0.8 mg/kg | > 50 mg/kg | > 50 mg/kg | 25 mg/kg | > 50 mg/kg
CN(C)CCSc1nnc2n1-c1ccc(Cl)cc1C(c1ccccc1)=NC2 | 3.1 mg/kg | > 50 mg/kg | > 50 mg/kg | 7.4 mg/kg | 1.6 mg/kg | > 50 mg/kg | > 50 mg/kg | > 50 mg/kg | > 50 mg/kg | > 50 mg/kg
OCc1nnc2n1-c1ccc(Cl)cc1C(c1ccccc1Cl)=NC2 | 0.045 mg/kg | 7 mg/kg | > 50 mg/kg | 0.02 mg/kg | 0.01 mg/kg | 0.06 mg/kg | > 50 mg/kg | > 50 mg/kg | > 50 mg/kg | > 50 mg/kg
CCOCc1nnc2n1-c1ccc(Cl)cc1C(c1ccccc1)=NC2 | 1.4 mg/kg | 40 mg/kg | > 50 mg/kg | 3 mg/kg | 0.9 mg/kg | 10 mg/kg | > 50 mg/kg | > 50 mg/kg | > 50 mg/kg | > 50 mg/kg
Cc1nnc2n1-c1ccc(Br)cc1C(c1ccccn1)=NC2 | 0.12 mg/kg |  |  | 0.24 mg/kg | 0.035 mg/kg |  |  | > 50 mg/kg | > 50 mg/kg | > 50 mg/kg
Cc1nnc2n1-c1ccc(Br)cc1C(c1ccccc1)=NC2 | 0.6 mg/kg | 20 mg/kg | 20 mg/kg | 0.5 mg/kg | 0.8 mg/kg | 2 mg/kg | > 50 mg/kg | > 50 mg/kg | > 50 mg/kg | > 50 mg/kg
CN(C)CCCN1c2ccccc2Sc2ccc(Cl)cc21 [CHLORPROMAZINE] | > 50 mg/kg | 1 mg/kg | 1 mg/kg | 50 mg/kg | 0.5 mg/kg | > 50 mg/kg | 1 mg/kg |  | 0.9 mg/kg | 1 mg/kg
CN(C)CCCN1c2ccccc2CCc2ccccc21.Cl [IMIPRAMINE HYDROCHLORIDE] |  | > 50 mg/kg |  | 21 mg/kg | 18 mg/kg |  | > 50 mg/kg | 4 mg/kg | 1 mg/kg | 1 mg/kg
Cc1nnc2n1-c1ccc(Cl)cc1C(c1ccccc1Cl)=NC2 [TRIAZOLAM] | 0.07 mg/kg |  |  |  |  | 0.07 mg/kg |  | > 50 mg/kg | > 50 mg/kg | > 50 mg/kg
